Laboratory results from patent publication US6869929B2, “Use of transcription factors for treating inflammation and other diseases” (Beth Israel Deaconess Medical Center, priority 2000, dated 2005).

Assays:
COL2A1 promoter = COL2A1 promoter luciferase cotransfection in T/C-28a2 cells; type: cell-based, human; settings: for inhibition of COL2A1/4.0 activity: T/C-28a2, pGL3 construct, highest concentrations tested
Method: The COL2A1 sequence spanning −577 to +3428 bp (Goldring M B, et al, J Cell Biochem 1994;54:85-99, 39) was cloned into the pGL2-basic (pGL2B) luciferase reporter gene vector (Promega,) and named pGL2-COL2/4.0. Deletion constructs containing −577/+125 bp, −131/+125 bp, −87/+125 bp were prepared by enzyme digestion of pGL2-COL2/4.0 using PstI, ApaI, and PuuII, followed by ligation. For the deletion constructs −45/+125 bp, −83/+7 bp, and −45/+7 bp, PCR products were generated as described (Osaki et al.) and cloned into the pGL2-Basic luciferase vector. These reporter constructs were used as templates to generate point mutations or internal deletions by PCR mutagenesis employing the oligonucleotides listed in FIG. 16 and the QuikChange™ Site-Directed Mutagenesis Kit (Stratagene, La Jolla, Calif.). DNA fragments containing point mutations were then cloned into the pGL2B vector and confirmed by DNA sequencing using a G2 primer on pGL2 DNA. Deletions were also made in the −577/+127 bp COL2A1 promoter construct using the ExSite™ PCR-Based Site-Directed Mutagenesis Kit (Stratagene).
Transient transfection experiments were carried out in C-28/I2 cells using LipofectAMINE PLUS™ Reagent (Life Technologies). Cells were seeded in 6-well tissue culture plates at 3.5×10^5 cells/well in DMEM/F12 containing 10% FCS 24 h prior to transfection. For each well, 1 μg of COL2A1-luciferase construct, 6 μl of PLUS reagent and 92 μl of serum-free DMEM/F12 were mixed and incubated for 15 min at room temperature. LipofectAMINE+ reagent (4 μl) in 100 μl of serum-free medium was then added to each reaction mixture and incubation was continued for an additional 30 min at room temperature. Finally, the transfection mixture was combined with 800 μl of serum-free medium and the lipid-nucleic acid complex was transferred to the washed cell monolayer in each well. After incubation for 4 h at 37° C., the transfection mix was diluted with an equal volume of DMEM/F12 containing 2% Nutridoma-SP, and incubation continued for 18 h in the absence or presence of IL-1β. For cotransfections, the cells were incubated for 24 h to permit expression of recombinant proteins prior to treatment with IL-1β for a further 18 h. Cell lysates were prepared by extraction with 200 μl of Reporter Lysis Buffer (Promega) and the protein content was determined using the Coomassie Plus Protein Assay Reagent (PIERCE). Luciferase activities were determined by chemiluminescence assay using the Autolumat LB953 luminometer (EG&G Berthold, Oak Ridge, Tenn.), normalized to the amount of protein. Each data point was calculated as the mean±standard deviation for three independently transfected cultures from one representative of at least three experiments. […]

ESE-1 [1] = assay: ESE-1 mRNA RT-PCR in RA synovial fibroblasts; type: cell-based, human; settings: for ESE-1 mRNA expression, agent alone: 4th passage RA synovial fibroblasts
Method: Tissues from patients with rheumatoid arthritis (RA) were obtained as discarded materials from total joint replacement surgery or synovectomy. RA synovial tissue samples were cultured for the generation of adherent synovial fibroblasts. Dispersed synovial tissues were prepared by a previously published method (Goldring, S. R., et al. 1983. The synovial-like membrane at the bone-cement interface in loose total hip replacements and its proposed role in bone lysis. J Bone Joint Surg 65:575-84). Cells were subjected to 2-4 passages and stimulated with IL-1β (R&D Systems) at 100 pg/ml or with TNF-α (R&D Systems) at 5 ng/ml.
(§1) cDNAs were generated from 1 μg of total RNA using Ready-To-Go™ You-prime First-Strand Beads (Amersham Pharmacia Biotech Inc). RT-PCR amplifications of 0.1 μg cDNA were carried out using a MJResearch thermal cycler PTC-100 as follows: 5 min at 94° C., 20-37 cycles of 30 sec at 94° C., 30 sec at 56° C., and 30 sec at 72° C., followed by 5 min at 72° C. (Oettgen, P., et al. 2000, J Biol Chem 275:1216-25). The sequences of the human ESE-1 primers and the primers for human GAPDH were as described (Oettgen, P., et al. 1999, J Biol Chem 274:29439-52).
The synovium in RA is comprised of heterogeneous cell populations including monocyte/macrophages, lymphocytes and synovial fibroblasts. To evaluate whether ESE-1 expression in synovial fibroblasts is regulated by proinflammatory cytokines, 4th passage synovial fibroblasts isolated from RA synovium were stimulated for different times with IL-1β in the absence or presence of indomethacin. […] They also indicate that cytokine-induced prostaglandins may modulate steady state ESE-1 mRNA levels. […] We, therefore, focused our attention in further studies on IL-1β.

ESE-1 [2] = assay: ESE-1 mRNA RT-PCR in immortalized chondrocytes T/C28a2, C28/I2, C20/A4; type: cell-based, human; settings: T/C28a2, C28/I2 and C20/A4 chondrocytes; 24 hours
Method: (§2) U-87 Mg and U-138 Mg (human glioma), THP-1 (human monocytic), RAW 264.7 (murine monocytic), LB-12 (human osteoblast-like large T antigen transformed bone marrow stromal cells), and human chondrocytes were grown and treated with cytokines as described (Apperley, J., et al. 1990. J Bone Mineral Res. 5:S93; Goldring, M. B., et al. 1994. J Clin Invest 94:2307-16; Goldring, S. R., et al. 1983. J Bone Joint Surg 65:575-84; Libermann, T. A., et al. 1987. Embo J. 6:1627-1632).
as §1
To test the hypothesis that ESE-1 is a mediator of cytokine responses in non-epithelial cell types, we analyzed ESE-1 expression in response to a variety of cytokines in several connective tissue cell types. Immortalized human chondrocytes, T/C28a2, C28/I2, and C20/A4 (Goldring, M. B., et al. 1994, J Clin Invest 94:2307-16), were stimulated with IL-1β, TNF-α and IFN-γ for 24 hours. […] The kinetics of ESE-1 induction was explored in a time course experiment with T/ C28a2 chondrocytes.

ESE-1 [3] = assay: ESE-1 mRNA Northern blot in LB-12 osteoblasts; type: cell-based, human; settings: LB-12 cells
Method: as §2
Total RNA was harvested using QIAshreder (Qiagen) and RNeasy® Mini Kit (Quiagen) or Trizol (Gibco BRL). Poly A^+ RNA was prepared with MicroPoly(A) Pure (Ambion). Northern blots (5 μg total RNA) were hybridized using a full length ESE-1 cDNA probe as described (Oettgen, P., et al. et al. 1997, Mol Cell Biol 17:4419-33.).
Osteoblasts, the bone cells responsible for bone formation, represent another connective tissue cell target of inflammatory cytokines in joint disorders (Bogoch, E. R., and E. Moran. 1998, Can J Surg 41:264-71). […] LB-12 cells were incubated for different times in the absence or presence of IL-1β. […] Since the rapid, but transient induction of ESE-1 resembles that of immediate early genes, we tested the effect of the protein synthesis inhibitor cycloheximide which superinduces expression of certain genes due to mRNA stabilization. Cycloheximide alone had no effect, but superinduced IL-1β-mediated ESE-1 mRNA expression (FIG. 11d).

NOS2 promoter [4] = assay: LPS (endotoxin) induction of NOS2 promoter luciferase reporter in RAW cells; type: cell-based, murine
Method: (§3) A 1516 and 265 bp fragment corresponding to nucleotides (−1485 to +31) and (−234 to +31) of the murine NOS2 gene promoter were subcloned into the PGL2 luciferase reporter(Promega).
(§4) Co-transfections of 2×10^5 RAW cells or RASMCs were carried out with 0.6 μg reporter gene construct DNA and 0.6 μg expression vector DNA using 6 μl lipofectamine (Gibco-BRL) as described (Oettgen, P., et al. 1996. Characterization of NERF, a novel transcription factor related to the Ets factor ELF-1. Mol Cell Biol 16:5091-106). The cells were harvested 16 hours after transfection and assayed for luciferase activity. Transfections for every construct were performed independently in duplicates and repeated 3 times with two different plasmid preparations with similar results. Cotransfection of a second plasmid for determination of transfection efficiency was omitted because potential artifacts with this technique have been reported and because many commonly used viral promoters contain potential binding sites for ets factors (Farr, A., and A. Roman. 1992. A pitfall of using a second plasmid to determine transfection efficiency. Nucleic Acids Res 20:920).
In the presence of LPS, the ESE-1 DN1 protein blocked induction of the NOS2 promoter by LPS by approximately 70-75%. (See FIG. 21C).

NOS2 promoter [5] = assay: ESE-1 transactivation of NOS2 promoter luciferase reporter, cotransfection in RAW cells; type: cell-based, murine; settings: cotransfected with ESE-1
Method: as §3, §4
The ability of ESE-1 DN 1 to block transactivation of the NOS2 promoter was tested in RAW cells. Cotransfection of ESE-1 with the NOS2 promoter led to an approximate 12-fold increase in transactivation. […]

pCI-NERF2: expression vector for the ETS factor NERF-2
inhibition of COL2A1/4.0 activity (COL2A1 promoter): 40%

COc1ccc2c(c1)c(CC(=O)O)c(C)n2C(=O)c1ccc(Cl)cc1 [indomethacin]
ESE-1 mRNA expression, agent alone (ESE-1 [1]): did not express detectable ESE-1 mRNA | IL-1β-induced ESE-1 mRNA levels in presence of agent (ESE-1 [1]; RA synovial fibroblasts, 6 hours, 24 hours, 5 days): stabilized and did not decline even after 5 days

IFN-γ: cytokine tested on chondrocytes
ESE-1 expression (ESE-1 [2]): failed to induce ESE-1 expression

TNF-α
ESE-1 mRNA expression, agent alone (ESE-1 [1]): minimal ESE-1 induction | ESE-1 expression (ESE-1 [2]): stimulated ESE-1 expression in T/ C28a2 cells to similar levels as IL-1β, but only weakly in C28/I2 and C20/A4 cells

pCI-ELF1: expression vector for the ETS factor ELF-1
inhibition of COL2A1/4.0 activity (COL2A1 promoter): 65%

ESE-3: ESE family Ets factor overexpressed by cotransfection
inhibition of pGL2-COL2/4.0 (COL2A1 promoter; highest concentration tested): ~60%

C[C@]12CCC(=O)C=C1CC[C@@H]1[C@@H]2[C@@H](O)C[C@@]2(C)[C@H]1CC[C@]2(O)C(=O)CO [Hydrocortisone]
IL-1β-mediated ESE-1 mRNA expression in presence of agent (ESE-1 [3]): strongly enhanced | ESE-1 mRNA expression, agent alone (ESE-1 [3]; 1, 2, 6, 24 hours): did not induce

B1: ESE-1 DN1: dominant negative ESE-1 protein lacking amino acids 26 through 192, expressed from pCI plasmid (SEQ ID NO: 39) (protein, listed as Homo sapiens)
chain: MAATCEISNIFSNYFSAMYSSEDSTAGTGASRSSHSSDSGGSDVDLDPTDGKLFPSDGFRDCKKGDPKHGKRKRGRPRKLSKEYWDCLEGKKSKHAPRGTHLWEFIRDILIHPELNEGLMKWENRHEGVFKFLRSEAVAQLWGQKKKNSNMTYEKLSRAMRYYYKREILERVDGRRLVYKFGKNSSGWKEEEVLQSRN
induction of the NOS2 promoter by LPS blocked by (NOS2 promoter [4]; in the presence of LPS): 70-75% | basal NOS2 promoter activity (NOS2 promoter [4]; prior to LPS induction): slight reduction | ESE-1 transactivation of the NOS2 promoter blocked by (NOS2 promoter [5]): 60-70%
